According to ChEMBL document CHEMBL1795277, “Synthesis of novel pyrazolo[1,5-a]pyrazin-4(5H)-one derivatives and their inhibition against growth of A549 and H322 lung cancer cells” (Bioorg Med Chem Lett, 2011):
Activity calls are given as the source filed them. The rule behind the calls is not given here.

Tests used:
Assay type in all cases: functional, cell-based
A549 [1] = assay: Cytotoxicity against human A549 cells assessed as cell growth inhibition after 48 hrs by SRB assay; settings: for IC50: A549, 48 h
A549 [2] = assay: Cytotoxicity against human A549 cells assessed as cell growth inhibition at 40 uM after 48 hrs by SRB assay
NCI-H322 [3] = assay: Cytotoxicity against human NCI-H322 cells assessed as cell growth inhibition at 40 uM after 48 hrs by SRB assay
[4] = (§1) Cytotoxicity against human NCI-H322 cells assessed as cell growth inhibition after 48 hrs by SRB assay; settings: NCI-H322, 48 h
A549 [5] = assay: Induction necrosis in human A549 cells at 40 uM after 48 hrs by LDH release assay
NCI-H322 [6] = assay: Cytotoxicity against human NCI-H322 cells assessed as reduction of total cell quantity at 40 uM after 48 hrs by inverted microscopic analysis
A549 [7] = assay: Cytotoxicity against human A549 cells assessed as reduction of total cell quantity at 40 uM after 48 hrs by inverted microscopic analysis
NCI-H322 [8] = assay: Induction morphological changes in human NCI-H322 cells at 40 uM after 48 hrs by inverted microscopic analysis
NCI-H322 [9] = assay: Induction necrosis in human NCI-H322 cells at 40 uM after 48 hrs by LDH release assay
A549 [10] = assay: Induction morphological changes in human A549 cells at 40 uM after 48 hrs by inverted microscopic analysis
NCI-H322 [11] = assay: as §1

Compound | IC50 (A549 [1]) [µM] | growth inhibition (GI) (A549 [2]) | growth inhibition (GI) (NCI-H322 [3]) | IC50 [4] [µM] | Activity (A549 [5]) | Activity (NCI-H322 [6]) | growth inhibition (GI) (A549 [1]) | Activity (A549 [7]) | Activity (NCI-H322 [8]) | Activity (NCI-H322 [9]) | Activity (A549 [10]) | growth inhibition (GI) (NCI-H322 [11])
COc1ccc(-c2cn3nc(-c4ccccc4)cc3c(=O)n2CCOCCO)cc1 | 59 | Active | Active | 74.7 |  |  |  |  |  |  |  | 
COc1ccc(-c2cc3c(=O)n(CCOCCO)c(-c4ccccc4)cn3n2)cc1 | 50.3 | Active | Active | 68.7 |  |  |  |  |  |  |  | 
COc1ccc(-c2cc3c(=O)n(CCOCCO)c(-c4ccc(Cl)cc4)cn3n2)cc1 | 49.7 | Active | Active | 76.9 |  |  |  |  |  |  |  | 
O=c1c2cc(-c3ccc(Cl)cc3)nn2cc(-c2ccccc2)n1CCOCCO | 24.2 | Active | Active | 29.4 | inactive | Active | Dose-dependent effect | Active | Active | inactive | Active | Dose-dependent effect
O=c1c2cc(-c3ccccc3)nn2cc(-c2ccc(Cl)cc2)n1CCOCCO | 62.6 | Active | Active | 91 |  |  |  |  |  |  |  | 
COc1ccc(-c2cc3c(=O)n(CCOCCO)c(-c4ccc(OC)cc4)cn3n2)cc1 | 34.7 | Active | Active | 50.6 | inactive | Active | Dose-dependent effect | Active | Active | inactive | Active | Dose-dependent effect
O=c1c2cc(-c3ccccc3)nn2cc(-c2ccccc2)n1CCOCCO | 41.1 | Active | Active | 45.6 | inactive | Active | Dose-dependent effect | Active | Active | inactive | Active | Dose-dependent effect
